Measured values: US12466800B2, “N-((1,2,3,5,6,7-hexahydro-S-indacen-4-yl)carbamoyl)-4, 5, 6, 7-tetrahydrobenzofuran-2-sulfonamide derivatives and related compounds as NLPR3 modulators for the treatment of multiple sclerosis (MS)” (Zomagen Biosciences Ltd, priority 2019, dated 2025)

These compounds were tested on IL-1b (assay: Mouse BMDM IL-1b Assay). Conditions: Macrophage; mouse bone marrow derived macrophages (C57BL6); 200 ng/mL LPS 3 h, compound 30 min, 5 mM ATP 45 min; IL-1b ELISA of supernatant.
Type: cell-based
How it was run: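 C57BL6 bone marrow macrophages, differentiated 7 days with 20 ng/mL MCSF, were primed with 200 ng/mL LPS for 3 h at 37° C, given compound for 30 min, then 5 mM ATP for 45 min. Supernatant IL-1b was measured by ELISA against standards; IC50 fitted by Levenberg-Marquardt.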

| IC50 [nM] | Compound |
| --- | --- |
| < 100 | CC1(C)CCC(C)(O)c2cc(S(=O)(=O)NC(=O)Nc3c4c(cc5c3CCC5)CCC4)oc21 (stereo not shown) [Compound 12, N-((1,2,3,5,6,7-hexahydro-s-indacen-4-yl)carbamoyl)-4-hydroxy-4,7,7-trimethyl-4,5,6,7-tetrahydrobenzofuran-2-sulfonamide] |
| 100 to 1000 | CC(C)c1cc(Cl)cc(C(C)C)c1NC(=O)NS(=O)(=O)c1cc2c(o1)CCC/C2=N/O [Compound 77, (Z)-N-((4-chloro-2,6-diisopropylphenyl)carbamoyl)-4-(hydroxyimino)-4,5,6,7-tetrahydrobenzofuran-2-sulfonamide] |
| < 100 | O=C(Nc1c2c(cc3c1CCC3)CCC2)NS(=O)(=O)c1cc2c(s1)CCCC2O (stereo not shown) [Compound 124, N-((1,2,3,5,6,7-hexahydro-s-indacen-4-yl)carbamoyl)-4-hydroxy-4,5,6,7-tetrahydrobenzo[b]thiophene-2-sulfonamide] |
| 100 to 1000 | CC(C)c1cc(Cl)cc(C(C)C)c1NC(=O)NS(=O)(=O)c1cc2c(o1)CCCC2O (stereo not shown) [Compound 61, N-((4-chloro-2,6-diisopropylphenyl)carbamoyl)-4-hydroxy-4,5,6,7-tetrahydrobenzofuran-2-sulfonamide] |
| < 100 | CN1CCc2sc(S(=O)(=O)NC(=O)Nc3c4c(cc5c3CCC5)CCC4)cc2C1 [Compound 113, N-((1,2,3,5,6,7-hexahydro-s-indacen-4-yl)carbamoyl)-5-methyl-4,5,6,7-tetrahydrothieno[3,2-c]pyridine-2-sulfonamide] |
| < 100 | CC1Cc2oc(S(=O)(=O)NC(=O)Nc3c4c(cc5c3CCC5)CCC4)cc2C(C)(O)C1 (stereo not shown) [Compound 16, N-((1,2,3,5,6,7-hexahydro-s-indacen-4-yl)carbamoyl)-4-hydroxy-4,6-dimethyl-4,5,6,7-tetrahydrobenzofuran-2-sulfonamide] |
| < 100 | O=C(Nc1c2c(c(Cl)c3c1CCC3)CCC2)NS(=O)(=O)c1cc2c(o1)CCCCC2O (stereo not shown) [Compound 117, N-((8-chloro-1,2,3,5,6,7-hexahydro-s-indacen-4-yl)carbamoyl)-4-hydroxy-5,6,7,8-tetrahydro-4H-cyclohepta[b]furan-2-sulfonamide] |
| < 100 | Cc1c(S(=O)(=O)NC(=O)Nc2c3c(cc4c2CCC4)CCC3)oc2c1C(=O)CCC2 [Compound 91, N-((1,2,3,5,6,7-hexahydro-s-indacen-4-yl)carbamoyl)-3-methyl-4-oxo-4,5,6,7-tetrahydrobenzofuran-2-sulfonamide] |
| < 100 | CC1(O)CCCc2oc(S(=O)(=O)NC(=O)Nc3c4c(c(Cl)c5c3CCC5)CCC4)cc21 (stereo not shown) [Compound 44, N-((8-chloro-1,2,3,5,6,7-hexahydro-s-indacen-4-yl)carbamoyl)-4-hydroxy-4-methyl-4,5,6,7-tetrahydrobenzofuran-2-sulfonamide] |
| 100 to 1000 | CC(C)C1Cc2oc(S(=O)(=O)NC(=O)Nc3c4c(cc5c3CCC5)CCC4)cc2C(O)C1 (stereo not shown) [Compound 28, N-((1,2,3,5,6,7-hexahydro-s-indacen-4-yl)carbamoyl)-4-hydroxy-6-isopropyl-4,5,6,7-tetrahydrobenzofuran-2-sulfonamide] |
| < 100 | O=C(Nc1c2c(cc3c1CCC3)CCC2)NS(=O)(=O)c1cc2c(o1)CCC/C2=N/O [Compound 36, (Z)—N-((1,2,3,5,6,7-hexahydro-s-indacen-4-yl)carbamoyl)-4-(hydroxyimino)-4,5,6,7-tetrahydrobenzofuran-2-sulfonamide] |
| < 100 | O=C(Nc1c2c(c(Cl)c3c1CCC3)CCC2)NS(=O)(=O)c1cc2c(o1)CCCC2O (stereo not shown) [Compound 43, N-((8-chloro-1,2,3,5,6,7-hexahydro-s-indacen-4-yl)carbamoyl)-4-hydroxy-4,5,6,7-tetrahydrobenzofuran-2-sulfonamide] |
| < 100 | CC1(C)CCc2oc(S(=O)(=O)NC(=O)Nc3c4c(cc5c3CCC5)CCC4)cc2C1=NO [Compound 50, N-((1,2,3,5,6,7-hexahydro-s-indacen-4-yl)carbamoyl)-4-(hydroxyimino)-5,5-dimethyl-4,5,6,7-tetrahydrobenzofuran-2-sulfonamide] |
| 100 to 1000 | O=C(O)CCC1(O)CCCc2oc(S(=O)(=O)NC(=O)Nc3c4c(cc5c3CCC5)CCC4)cc21 (stereo not shown) [Compound 126, 3-(2-(N-((1,2,3,5,6,7-hexahydro-s-indacen-4-yl)carbamoyl)sulfamoyl)-4-hydroxy-4,5,6,7-tetrahydrobenzofuran-4-yl)propanoic acid] |
| 1000 to 10000 | CC(C)c1cccc(C(C)C)c1CC(=O)NS(=O)(=O)c1cc2c(o1)CCC(C)(C)C2(C)O (stereo not shown) [Compound 75, 2-(2,6-diisopropylphenyl)-N-((4-hydroxy-4,5,5-trimethyl-4,5,6,7-tetrahydrobenzofuran-2-yl)sulfonyl)acetamide] |
| 100 to 1000 | CC1(C)CCc2oc(S(=O)(=O)NC(=O)Nc3c4c(cc5c3CCC5)CCC4)cc2C1=O [Compound 13, N-((1,2,3,5,6,7-hexahydro-s-indacen-4-yl)carbamoyl)-5,5-dimethyl-4-oxo-4,5,6,7-tetrahydrobenzofuran-2-sulfonamide] |
| 100 to 1000 | CC(C)c1cccc(C(C)C)c1NC(=O)NS(=O)(=O)c1cc2c(o1)CCCCC2(C)O (stereo not shown) [Compound 109, N-((2,6-diisopropylphenyl)carbamoyl)-4-hydroxy-4-methyl-5,6,7,8-tetrahydro-4H-cyclohepta[b]furan-2-sulfonamide] |
| < 100 | Cc1c2c(c(NC(=O)NS(=O)(=O)c3cc4c(o3)CCCC4O)c3c1CCC3)CCC2 (stereo not shown) [Compound 52, 4-hydroxy-N-((8-methyl-1,2,3,5,6,7-hexahydro-s-indacen-4-yl)carbamoyl)-4,5,6,7-tetrahydrobenzofuran-2-sulfonamide] |
| 100 to 1000 | O=C(Nc1c2c(cc3c1CCC3)CCC2)NS(=O)(=O)c1cc2c(o1)CCCC2=O [Compound 6] |
